Common to all, as to format: cell-based
Experiment [1] has as its target T1, YddA (Escherichia coli, UniProt P31826). Briefly: fluorescence efflux and accumulation assays in whole cells, yddA knockout vs parent strains; also inhibits norfloxacin efflux.
The target in experiment [2] is T1, YddA. Put plainly: fluorescence efflux and accumulation assays in whole cells, yddA knockout vs parent strains.
In experiment [3] the target is T1, YddA. Briefly: inhibition of norfloxacin efflux in whole cells (fluorescence). An excerpt:
inhibition of norfloxacin efflux in whole cells (fluorescence) on YddA | Efflux of norfloxacin by YddA transporter was inhibited by reserpine

Molecules are shown by their SMILES.

This note sets out measurements from paper PMC9728188, “Cloning and Functional Characterization of Putative Escherichia coli ABC Multidrug Efflux Transporter YddA” (Journal of Microbiology and Biotechnology, 2020).

T1 sequence (P31826 whole entry): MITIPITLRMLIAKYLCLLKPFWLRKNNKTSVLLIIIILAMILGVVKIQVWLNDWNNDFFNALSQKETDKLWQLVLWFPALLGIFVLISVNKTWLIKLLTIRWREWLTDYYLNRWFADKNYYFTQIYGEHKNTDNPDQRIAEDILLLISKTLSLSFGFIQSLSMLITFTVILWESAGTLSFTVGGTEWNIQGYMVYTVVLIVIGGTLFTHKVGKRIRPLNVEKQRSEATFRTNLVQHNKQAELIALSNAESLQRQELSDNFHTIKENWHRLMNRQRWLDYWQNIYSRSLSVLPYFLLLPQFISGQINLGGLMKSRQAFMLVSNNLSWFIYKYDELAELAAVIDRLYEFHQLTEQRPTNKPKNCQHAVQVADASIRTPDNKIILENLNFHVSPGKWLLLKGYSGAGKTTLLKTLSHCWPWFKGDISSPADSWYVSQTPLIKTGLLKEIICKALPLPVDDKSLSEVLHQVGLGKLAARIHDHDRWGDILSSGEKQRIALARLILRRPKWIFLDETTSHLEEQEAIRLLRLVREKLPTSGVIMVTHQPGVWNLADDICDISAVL

On to `CC[n+]1c(-c2ccccc2)c2cc(N)ccc2c2ccc(N)cc21` [EB, ethidium bromide], for which the “fluorescence efflux and accumulation assays in whole cells, yddA knockout vs par” value on YddA [1] was “indicating that yddA knockout reduced EB efflux, which increased the accumulation of EB in cells”. Consider `CCn1cc(C(=O)O)c(=O)c2cc(F)c(N3CCNCC3)cc21` [norfloxacin], for which, on YddA [2], the “fluorescence efflux and accumulation assays in whole cells, yddA knockout vs par” value is given as “The results showed that knockout of yddA led to less norfloxacin efflux out of cells”.

At YddA [3], `COC(=O)[C@H]1[C@H]2C[C@@H]3c4[nH]c5cc(OC)ccc5c4CCN3C[C@H]2C[C@@H](OC(=O)c2cc(OC)c(OC)c(OC)c2)[C@@H]1OC` [reserpine] displayed an IC50 of 120 µM.

One may read the IC50 as the concentration at which inhibition is half-maximal. Higher therefore signals weaker potency in that assay.
